Key:
[1] = biological target: Epidermal growth factor receptor (Homo sapiens, UniProt P00533); assay: Inhibition of recombinant human N-terminal GST-tagged wild-type EGFR (695 to end residues) expressed in baculovirus infected Sf9 insect cells using poly (Glu,Tyr)4:1 as substrate pretreated for 60 mins followed by substrate addition after 1 hr by ADP-Glo luminescence assay
OCI-AML-3 = assay: Growth inhibition of human OCI-AML3 cells; format: functional; conditions: Homo sapiens, OCI-AML-3
PBMC = assay: Cytotoxicity against PBMC (unknwon origin); format: cell-based
[2] = Tmax in Sprague-Dawley rat at 10 mg/kg, po by LC-MS/MS method; format: ADME, organism-based; conditions: in vivo
[3] = Cmax in Sprague-Dawley rat at 1 mg/kg, iv by LC-MS/MS method; format: ADME, organism-based; design: dose 1 mg/kg, route intravenous; conditions: in vivo
[4] = biological target: 5'-AMP-activated protein kinase catalytic subunit alpha-2 (Homo sapiens) (UniProt P54646); assay: Inhibition of wild-type human partial length AMPK alpha2 (M1 to E306 residues) expressed in bacterial expression system assessed as residual activity at 1 uM by Kinomescan method relative to control
[5] = biological target: Mitogen-activated protein kinase kinase kinase 5 (Homo sapiens) (UniProt Q99683); assay: Inhibition of wild-type human partial length ASK1 (E648 to S964 residues) expressed in bacterial expression system assessed as residual activity at 1 uM by Kinomescan method relative to control
[6] = biological target: Discoidin domain-containing receptor 2 (Homo sapiens) (UniProt Q16832); assay: Inhibition of wild-type human partial length DDR2 (V555 to E855 residues) expressed in mammalian expression system assessed as residual activity at 1 uM by Kinomescan method relative to control
[7] = biological target: Dual specificity tyrosine-phosphorylation-regulated kinase 2 (Homo sapiens) (UniProt Q92630); assay: Inhibition of wild-type human full length DYRK2 (M1 to S528 residues) expressed in mammalian expression system assessed as residual activity at 1 uM by Kinomescan method relative to control
[8] = tested on: Epidermal growth factor receptor (Homo sapiens), P00533 [UNDEFINED MUTATION]; assay: Inhibition of human partial length EGFR E746-A750del mutant expressed in bacterial expression system assessed as residual activity at 1 uM by Kinomescan method relative to control
[9] = tested on: Epidermal growth factor receptor (Homo sapiens), P00533 [UNDEFINED MUTATION]; assay: Inhibition of human partial length EGFR L747-E749del/A750P mutant expressed in bacterial expression system assessed as residual activity at 1 uM by Kinomescan method relative to control
[10] = tested on: Epidermal growth factor receptor (Homo sapiens), P00533 [UNDEFINED MUTATION]; assay: Inhibition of human partial length EGFR L747-S752del/P753S mutant expressed in bacterial expression system assessed as residual activity at 1 uM by Kinomescan method relative to control
[11] = biological target: Fibroblast growth factor receptor 2 (Homo sapiens) (UniProt P21802); assay: Inhibition of wild-type human partial length FGFR2 (D457 to E769 residues) expressed in bacterial expression system assessed as residual activity at 1 uM by Kinomescan method relative to control
[12] = biological target: Serine/threonine-protein kinase STK11 (Homo sapiens) (UniProt Q15831); assay: Inhibition of wild-type human full length LKB1 (M1 to Q433 residues) expressed in bacterial expression system assessed as residual activity at 1 uM by Kinomescan method relative to control
[13] = biological target: Mitogen-activated protein kinase kinase kinase 3 (Homo sapiens) (UniProt Q99759); assay: Inhibition of wild-type human partial length MAP3K3 (E320 to Y626 residues) expressed in mammalian expression system assessed as residual activity at 1 uM by Kinomescan method relative to control
[14] = biological target: MAP kinase-activated protein kinase 2 (Homo sapiens) (UniProt P49137); assay: Inhibition of wild-type human partial length MAPKAPK2 (V48 to D345 residues) expressed in bacterial expression system assessed as residual activity at 1 uM by Kinomescan method relative to control
[15] = biological target: Mitogen-activated protein kinase kinase kinase 9 (Homo sapiens) (UniProt P80192); assay: Inhibition of wild-type human partial length MLK1 (V88 to W426 residues) expressed in bacterial expression system assessed as residual activity at 1 uM by Kinomescan method relative to control
[16] = biological target: Serine/threonine-protein kinase PAK 2 (Homo sapiens) (UniProt Q13177); assay: Inhibition of wild-type human partial length PAK2 (P151 to R525 residues) expressed in bacterial expression system assessed as residual activity at 1 uM by Kinomescan method relative to control
[17] = biological target: 1-phosphatidylinositol 3-phosphate 5-kinase (Homo sapiens) (UniProt Q9Y2I7); assay: Inhibition of wild-type human partial length PIKFYVE (F1512 to C2098 residues) expressed in mammalian expression system assessed as residual activity at 1 uM by Kinomescan method relative to control
[18] = biological target: Phosphatidylinositol 4-phosphate 5-kinase type-1 gamma (Homo sapiens) (UniProt O60331); assay: Inhibition of wild-type human partial length PIP5K1C (M1 to T668 residues) expressed in mammalian expression system assessed as residual activity at 1 uM by Kinomescan method relative to control
[19] = biological target: Interferon-induced, double-stranded RNA-activated protein kinase (Homo sapiens) (UniProt P19525); assay: Inhibition of wild-type human partial length PRKR (F247 to C551 residues) expressed in bacterial expression system assessed as residual activity at 1 uM by Kinomescan method relative to control
[20] = biological target: Rho-associated protein kinase 2 (Homo sapiens) (UniProt O75116); assay: Inhibition of wild-type human partial length ROCK2 (M1 to T431 residues) expressed in mammalian expression system assessed as residual activity at 1 uM by Kinomescan method relative to control
[21] = biological target: Ribosomal protein S6 kinase alpha-1 (Homo sapiens) (UniProt Q15418); assay: Inhibition of wild-type human partial length C-terminal RSK1 kinase domain 2 (P360 to L681 residues) expressed in bacterial expression system assessed as residual activity at 1 uM by Kinomescan method relative to control
[22] = biological target: Serine/threonine-protein kinase 33 (Homo sapiens) (UniProt Q9BYT3); assay: Inhibition of wild-type human full length STK33 (M1 to L514 residues) expressed in bacterial expression system assessed as residual activity at 1 uM by Kinomescan method relative to control
[23] = biological target: Tyrosine-protein kinase SYK (Homo sapiens) (UniProt P43405); assay: Inhibition of wild-type human partial length SYK (D354 to N635 residues) expressed in bacterial expression system assessed as residual activity at 1 uM by Kinomescan method relative to control
[24] = biological target: Transient receptor potential cation channel subfamily M member 6 (Homo sapiens) (UniProt Q9BX84); assay: Inhibition of wild-type human partial length TRPM6 (Q1723 to I1998 residues) expressed in mammalian expression system assessed as residual activity at 1 uM by Kinomescan method relative to control
[25] = biological target: Tyrosine-protein kinase Yes (Homo sapiens) (UniProt P07947); assay: Inhibition of wild-type human partial length YES (T257 to L543 residues) expressed in bacterial expression system assessed as residual activity at 1 uM by Kinomescan method relative to control

Sequence of Epidermal growth factor receptor (Homo sapiens), P00533 [UNDEFINED MUTATION] (P00533 whole entry, looked up, stated change not applied, the tested form may be a part): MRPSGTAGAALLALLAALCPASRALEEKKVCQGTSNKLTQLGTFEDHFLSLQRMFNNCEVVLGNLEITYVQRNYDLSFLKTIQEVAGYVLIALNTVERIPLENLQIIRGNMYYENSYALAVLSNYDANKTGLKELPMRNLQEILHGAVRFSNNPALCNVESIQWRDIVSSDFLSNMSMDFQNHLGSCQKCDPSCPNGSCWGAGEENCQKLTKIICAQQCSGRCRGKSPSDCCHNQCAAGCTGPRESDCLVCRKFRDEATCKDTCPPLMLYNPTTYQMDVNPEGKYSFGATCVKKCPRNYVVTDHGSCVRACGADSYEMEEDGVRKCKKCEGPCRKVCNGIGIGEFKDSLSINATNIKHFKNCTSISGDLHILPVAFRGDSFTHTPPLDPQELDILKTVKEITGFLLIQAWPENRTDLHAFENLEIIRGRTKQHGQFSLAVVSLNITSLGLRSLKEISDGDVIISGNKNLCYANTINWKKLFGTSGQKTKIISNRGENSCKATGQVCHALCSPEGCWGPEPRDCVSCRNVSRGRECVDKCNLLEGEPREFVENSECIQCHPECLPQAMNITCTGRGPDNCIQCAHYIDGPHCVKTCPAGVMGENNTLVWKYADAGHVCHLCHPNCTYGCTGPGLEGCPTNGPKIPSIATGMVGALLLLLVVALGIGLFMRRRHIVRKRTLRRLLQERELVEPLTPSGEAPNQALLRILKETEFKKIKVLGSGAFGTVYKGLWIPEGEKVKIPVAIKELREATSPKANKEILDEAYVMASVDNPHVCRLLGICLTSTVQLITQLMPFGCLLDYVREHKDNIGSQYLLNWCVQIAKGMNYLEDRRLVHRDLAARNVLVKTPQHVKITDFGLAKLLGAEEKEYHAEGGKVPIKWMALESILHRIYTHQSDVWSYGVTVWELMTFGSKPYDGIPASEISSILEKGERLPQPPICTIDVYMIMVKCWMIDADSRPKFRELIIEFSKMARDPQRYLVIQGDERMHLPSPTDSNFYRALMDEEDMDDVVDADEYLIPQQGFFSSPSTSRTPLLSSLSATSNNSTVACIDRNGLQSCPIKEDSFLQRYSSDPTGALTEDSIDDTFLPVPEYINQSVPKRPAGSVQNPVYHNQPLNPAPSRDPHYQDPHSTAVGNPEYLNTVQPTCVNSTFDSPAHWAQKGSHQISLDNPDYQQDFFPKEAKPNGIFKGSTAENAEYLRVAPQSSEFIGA
Sequence of Mitogen-activated protein kinase kinase kinase 3 (Homo sapiens) (Q99759 whole entry, the tested form may be a part): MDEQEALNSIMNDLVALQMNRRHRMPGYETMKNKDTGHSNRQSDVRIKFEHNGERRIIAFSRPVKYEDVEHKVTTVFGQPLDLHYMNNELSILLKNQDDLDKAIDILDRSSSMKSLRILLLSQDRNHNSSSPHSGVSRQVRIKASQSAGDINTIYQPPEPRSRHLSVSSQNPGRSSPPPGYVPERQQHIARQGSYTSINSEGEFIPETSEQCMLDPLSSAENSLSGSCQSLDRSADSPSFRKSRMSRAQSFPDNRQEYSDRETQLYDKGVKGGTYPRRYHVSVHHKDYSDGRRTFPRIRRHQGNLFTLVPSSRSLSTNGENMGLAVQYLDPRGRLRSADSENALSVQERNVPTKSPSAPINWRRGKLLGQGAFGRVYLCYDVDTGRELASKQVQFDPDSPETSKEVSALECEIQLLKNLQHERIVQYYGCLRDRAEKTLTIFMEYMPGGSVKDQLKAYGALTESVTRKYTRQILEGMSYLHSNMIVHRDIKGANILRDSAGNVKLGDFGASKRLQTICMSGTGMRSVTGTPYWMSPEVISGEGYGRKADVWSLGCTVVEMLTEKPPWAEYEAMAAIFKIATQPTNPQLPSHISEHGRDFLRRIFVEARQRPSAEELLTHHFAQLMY
Sequence of 1-phosphatidylinositol 3-phosphate 5-kinase (Homo sapiens) (Q9Y2I7 whole entry, the tested form may be a part): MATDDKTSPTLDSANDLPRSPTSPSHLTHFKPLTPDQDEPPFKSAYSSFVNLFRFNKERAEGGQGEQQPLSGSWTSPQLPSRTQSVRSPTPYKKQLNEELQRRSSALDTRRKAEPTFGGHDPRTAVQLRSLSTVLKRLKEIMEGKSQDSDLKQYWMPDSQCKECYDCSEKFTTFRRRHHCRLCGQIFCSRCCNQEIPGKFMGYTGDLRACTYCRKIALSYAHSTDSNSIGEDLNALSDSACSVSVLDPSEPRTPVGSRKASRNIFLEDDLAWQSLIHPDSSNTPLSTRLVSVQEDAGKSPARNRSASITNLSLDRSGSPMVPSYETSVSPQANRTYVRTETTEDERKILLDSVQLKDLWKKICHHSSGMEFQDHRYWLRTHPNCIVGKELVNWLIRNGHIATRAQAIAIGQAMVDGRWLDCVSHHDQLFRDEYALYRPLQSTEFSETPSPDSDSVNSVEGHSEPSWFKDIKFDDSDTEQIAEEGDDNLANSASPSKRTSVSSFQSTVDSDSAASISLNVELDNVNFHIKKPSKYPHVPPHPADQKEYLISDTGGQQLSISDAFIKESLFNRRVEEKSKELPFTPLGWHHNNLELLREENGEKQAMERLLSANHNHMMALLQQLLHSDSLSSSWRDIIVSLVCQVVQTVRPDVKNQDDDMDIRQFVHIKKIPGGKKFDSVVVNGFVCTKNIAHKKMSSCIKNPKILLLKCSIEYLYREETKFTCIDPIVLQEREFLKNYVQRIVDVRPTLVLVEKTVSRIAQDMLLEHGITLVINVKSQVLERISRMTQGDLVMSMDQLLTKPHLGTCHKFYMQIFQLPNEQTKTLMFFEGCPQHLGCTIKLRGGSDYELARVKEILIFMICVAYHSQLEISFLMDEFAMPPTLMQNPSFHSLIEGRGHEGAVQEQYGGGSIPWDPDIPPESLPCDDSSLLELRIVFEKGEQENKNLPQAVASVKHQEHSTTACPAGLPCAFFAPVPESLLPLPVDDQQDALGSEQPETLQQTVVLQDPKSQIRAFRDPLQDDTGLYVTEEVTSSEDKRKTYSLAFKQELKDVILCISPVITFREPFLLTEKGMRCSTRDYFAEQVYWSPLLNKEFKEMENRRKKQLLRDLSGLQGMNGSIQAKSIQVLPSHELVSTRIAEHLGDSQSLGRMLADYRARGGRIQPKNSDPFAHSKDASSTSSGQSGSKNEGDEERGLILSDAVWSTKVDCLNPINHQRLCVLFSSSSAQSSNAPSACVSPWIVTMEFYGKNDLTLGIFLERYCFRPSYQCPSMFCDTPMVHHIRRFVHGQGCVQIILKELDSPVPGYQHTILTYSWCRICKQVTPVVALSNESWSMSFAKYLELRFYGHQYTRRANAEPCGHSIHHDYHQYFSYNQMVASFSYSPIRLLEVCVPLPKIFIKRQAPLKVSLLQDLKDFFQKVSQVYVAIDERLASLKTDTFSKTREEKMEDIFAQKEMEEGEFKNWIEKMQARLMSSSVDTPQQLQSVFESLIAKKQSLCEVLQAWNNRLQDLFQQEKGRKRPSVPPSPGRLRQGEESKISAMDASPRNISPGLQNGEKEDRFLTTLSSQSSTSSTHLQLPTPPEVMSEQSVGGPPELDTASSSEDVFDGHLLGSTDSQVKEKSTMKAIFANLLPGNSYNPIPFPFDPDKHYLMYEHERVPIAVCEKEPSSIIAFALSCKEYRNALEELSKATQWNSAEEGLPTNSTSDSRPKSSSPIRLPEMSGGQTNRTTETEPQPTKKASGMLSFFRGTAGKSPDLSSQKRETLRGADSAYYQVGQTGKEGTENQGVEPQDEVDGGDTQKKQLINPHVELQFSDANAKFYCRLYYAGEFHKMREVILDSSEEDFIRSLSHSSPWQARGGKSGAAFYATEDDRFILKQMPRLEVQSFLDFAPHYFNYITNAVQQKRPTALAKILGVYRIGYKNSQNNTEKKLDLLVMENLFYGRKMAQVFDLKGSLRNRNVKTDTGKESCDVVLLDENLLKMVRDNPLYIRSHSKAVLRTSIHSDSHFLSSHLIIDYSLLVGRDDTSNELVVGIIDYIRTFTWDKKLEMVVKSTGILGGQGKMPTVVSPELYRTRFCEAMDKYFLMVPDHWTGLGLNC
Sequence of Interferon-induced, double-stranded RNA-activated protein kinase (Homo sapiens) (P19525 whole entry, the tested form may be a part): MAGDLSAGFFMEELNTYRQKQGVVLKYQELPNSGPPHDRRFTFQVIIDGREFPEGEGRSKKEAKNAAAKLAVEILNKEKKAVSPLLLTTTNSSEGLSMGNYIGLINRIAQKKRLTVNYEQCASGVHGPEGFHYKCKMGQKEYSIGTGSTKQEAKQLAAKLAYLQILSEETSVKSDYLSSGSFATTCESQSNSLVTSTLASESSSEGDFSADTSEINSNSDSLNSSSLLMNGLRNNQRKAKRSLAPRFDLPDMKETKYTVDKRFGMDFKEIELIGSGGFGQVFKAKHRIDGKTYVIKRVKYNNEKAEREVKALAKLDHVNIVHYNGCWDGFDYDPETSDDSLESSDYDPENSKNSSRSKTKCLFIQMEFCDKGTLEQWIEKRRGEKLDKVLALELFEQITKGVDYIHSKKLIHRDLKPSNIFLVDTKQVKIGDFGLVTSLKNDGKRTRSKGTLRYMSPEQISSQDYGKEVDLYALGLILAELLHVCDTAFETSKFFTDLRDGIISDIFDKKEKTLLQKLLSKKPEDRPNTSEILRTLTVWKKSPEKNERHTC
Sequence of 5'-AMP-activated protein kinase catalytic subunit alpha-2 (Homo sapiens) (P54646 whole entry, looked up, the tested form may be a part): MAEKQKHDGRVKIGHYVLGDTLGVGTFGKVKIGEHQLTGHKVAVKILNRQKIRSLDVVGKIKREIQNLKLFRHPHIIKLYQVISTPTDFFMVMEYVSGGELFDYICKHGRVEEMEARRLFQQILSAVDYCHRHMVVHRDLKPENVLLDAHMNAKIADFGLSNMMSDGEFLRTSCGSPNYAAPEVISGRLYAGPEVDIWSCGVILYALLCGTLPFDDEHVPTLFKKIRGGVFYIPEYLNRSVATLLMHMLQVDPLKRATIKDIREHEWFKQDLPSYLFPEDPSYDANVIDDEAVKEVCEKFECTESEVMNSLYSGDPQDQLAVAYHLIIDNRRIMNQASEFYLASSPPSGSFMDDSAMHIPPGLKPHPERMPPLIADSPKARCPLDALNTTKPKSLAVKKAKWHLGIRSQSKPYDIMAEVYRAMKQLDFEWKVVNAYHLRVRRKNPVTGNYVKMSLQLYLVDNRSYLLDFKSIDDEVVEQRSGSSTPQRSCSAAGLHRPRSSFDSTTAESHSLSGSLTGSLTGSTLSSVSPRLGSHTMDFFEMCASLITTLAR

For `C=CC(=O)Nc1cc(Nc2cc(-c3cccc(NC(=O)c4ccc(C(C)(C)C)cc4)c3C)cn(C)c2=O)ccc1C(=O)N1CCOCC1`, which IC50 [1] is on record?
The IC50 was over 10 µM.

And the GI50 (OCI-AML-3)?
Its GI50 is 3.8 µM.

What about the Activity (PBMC) of the same compound?
Its Activity is “Non-Toxic”.

And the Tmax [2]?
Its Tmax is 30 min.

And the Cmax [3]?
Its Cmax is 0.897 µg/mL.

And the Activity [4]?
The Activity was 92%.

What about the Activity [5] of the same compound?
The Activity was 100%.

And the Activity [6]?
The Activity was 93%.

What about the Activity [7] of the same compound?
Its Activity is 97%.

What about the Activity [8] of the same compound?
Its Activity is 80%.

And the Activity [9]?
The Activity was 94%.

And the Activity [10]?
Its Activity is 88%.

What about the Activity [11] of the same compound?
Its Activity is 74%.

What about the Activity [12] of the same compound?
Its Activity is 98%.

And the Activity [13]?
The Activity was 100%.

What about the Activity [14] of the same compound?
The Activity was 88%.

And the Activity [15]?
Its Activity is 99%.

And the Activity [16]?
Its Activity is 81%.

What about the Activity [17] of the same compound?
The Activity was 96%.

What about the Activity [18] of the same compound?
The Activity was 100%.

What about the Activity [19] of the same compound?
Its Activity is 100%.

What about the Activity [20] of the same compound?
The Activity was 92%.

And the Activity [21]?
The Activity was 100%.

And the Activity [22]?
Its Activity is 100%.

And the Activity [23]?
Its Activity is 92%.

What about the Activity [24] of the same compound?
Its Activity is 99%.

What about the Activity [25] of the same compound?
The Activity was 93%.

Reference: ChEMBL document CHEMBL4024706 (Eur J Med Chem, 2017)
